Experimental data as given in patent publication US11707462B2, “Checkpoint kinase 1 (CHK1) inhibitors and uses thereof” (Boundless Bio, Inc., priority 2021, dated 2023).

Biological target: T1, Full-length human Chk1 protein (Homo sapiens, UniProt O14757)
T1 construct: purchased Carna Biosciences, Inc. 02-117
T1 sequence (O14757 1-476): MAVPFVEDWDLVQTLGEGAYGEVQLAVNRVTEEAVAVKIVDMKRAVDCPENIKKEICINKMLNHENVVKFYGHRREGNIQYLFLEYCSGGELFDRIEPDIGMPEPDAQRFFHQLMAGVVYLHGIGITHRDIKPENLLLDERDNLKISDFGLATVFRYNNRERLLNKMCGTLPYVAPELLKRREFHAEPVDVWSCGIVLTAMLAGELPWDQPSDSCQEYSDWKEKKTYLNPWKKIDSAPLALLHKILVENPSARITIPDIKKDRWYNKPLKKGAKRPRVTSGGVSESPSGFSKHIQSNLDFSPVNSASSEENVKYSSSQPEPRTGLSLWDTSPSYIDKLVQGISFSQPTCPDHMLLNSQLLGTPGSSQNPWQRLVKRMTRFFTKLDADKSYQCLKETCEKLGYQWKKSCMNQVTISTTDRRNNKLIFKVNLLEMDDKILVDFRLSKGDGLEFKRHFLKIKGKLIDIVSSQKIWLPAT
Assay: Kinase HTRF biochemical assay (HTRF KinEASE), Chk1 enzyme activity
Details: full-length human Chk1, ATP 1 mM, 60 minutes at room temperature
Protocol: Example A: Kinase HTRF Biochemical Assay
Chk1 enzyme activity was measured using an HTRF KinEASE assay (Cisbio, catalog no. 62ST1PEC). Full-length human Chk1 protein (GenBank accession number NP_001265.1) was obtained from Carna Biosciences, Inc. (Kobe, Japan, catalog no. 02-117). The enzyme reaction was carried out in assay buffer containing (final concentrations): Chk1 enzyme (0.012 ng/μL), MgCl2 (5 mM) and DTT (1 mM). To determine compound dose response, DMSO stock solutions were serially diluted in a 10-point concentration series in duplicate. Compound solution (50 nL) was added to 384-well assay plates (Greiner, catalog no. 784075). To each well containing compound solution was added assay buffer solution (5 μL). Plates were centrifuged at 1000 rpm for 1 minute, then incubated at room temperature for 10 minutes. The reaction was started by addition of substrate buffer (5 μL/well) containing (final concentrations): STK substrate 1-biotin (120 nM) and ATP (1 mM). Assay plates were centrifuged at 1000 rpm for 1 minute, then incubated at room temperature for 60 minutes. The reaction was stopped by addition of detection buffer (Cisbio, 10 μL) containing (final concentrations): STK antibody-cryptate (0.25 nM) and streptavidin-XL665 (7.5 nM). Plates were centrifuged at 1000 rpm for 1 minute, then incubated at 25° C. for 2 hours. HTRF signal was read on an EnVision multimode plate reader […] in HTRF mode. Data were fit to dose-response curves using XLfit (IDBS, Surrey, UK) or Prism (GraphPad Software, La Jolla, Calif., US) to calculate IC50 values for each compound tested.

Row | Structure (SMILES) | IC50 [nM]
1 | N#Cc1cnc(Nc2cc(-c3c(F)cccc3O[C@@H]3CCCC[C@@H](N)C3)[nH]n2)cn1 [Example 3-37, 5-((5-(2-(((1R,3R)-3-aminocycloheptyl)oxy)-6-fluorophenyl)-1H-pyrazol-3-yl)amino)pyrazine-2-carbonitrile] | 10 to 100
2 | COc1cccc(O[C@H]2CC[C@H]2N)c1-c1cc(Nc2cnc(C#N)cn2)n[nH]1 [Example 3-3, 5-((5-(2-((1S,2R)-2-aminocyclobutoxy)-6-methoxyphenyl)-1H-pyrazol-3-yl)amino)pyrazine-2-carbonitrile] | 100 to 500
3 | CN[C@@H]1CC[C@@H](Oc2ccc(Cl)c(F)c2-c2cc(Nc3cnc(C(N)=O)cn3)n[nH]2)C1 [Example 3-23, 5-((5-(3-chloro-2-fluoro-6-(((1R,3R)-3-(methylamino)cyclopentyl)oxy)phenyl)-1H-pyrazol-3-yl)amino)pyrazine-2-carboxamide] | > 1000
4 | COc1cccc(OC[C@H]2C[C@@H](N)C2)c1-c1cc(Nc2cnc(C#N)cn2)n[nH]1 [Example 1-2, 5-((5-(2-(((1s,3s)-3-aminocyclobutyl)methoxy)-6-methoxyphenyl)-1H-pyrazol-3-yl)amino)pyrazine-2-carbonitrile] | > 1000
5 | CC(C)Oc1cccc(O[C@H]2CC[C@H](N)CC2)c1-c1cc(Nc2cnc(C#N)cn2)n[nH]1 [Example 1-18, 5-((5-(2-(((1r,4r)-4-aminocyclohexyl)oxy)-6-isopropoxyphenyl)-1H-pyrazol-3-yl)amino)pyrazine-2-carbonitrile] | 100 to 500
6 | COc1cccc(O[C@H]2CCC[C@H](N)C2)c1-c1cc(Nc2cnc(C#N)cn2)n[nH]1 [Example 1-65, 5-[[5-[2-[(1S,3S)-3-aminocyclohexoxy]-6-methoxy-phenyl]-1H-pyrazol-3-yl]amino]pyrazine-2-carbonitrile] | > 1000
7 | Cc1nc(-c2cc(Nc3cnc(C(N)=O)cn3)n[nH]2)c(O[C@@H]2CC[C@H](N)C2)cc1F [Example 3-51, 5-((5-(3-(((1R,3S)-3-aminocyclopentyl)oxy)-5-fluoro-6-methylpyridin-2-yl)-1H-pyrazol-3-yl)amino)pyrazine-2-carboxamide] | > 1000
8 | N#Cc1cnc(Nc2cc(-c3c(OCC4CC4)cccc3O[C@@H]3CC[C@H](N)C3)[nH]n2)cn1 [Example 1-33, 5-((5-(2-(((1R,3S)-3-aminocyclopentyl)oxy)-6-(cyclopropylmethoxy)phenyl)-1H-pyrazol-3-yl)amino)pyrazine-2-carbonitrile] | 100 to 500
9 | COc1cccc(O[C@H]2CCCC[C@@H](N)C2)c1-c1cc(Nc2cnc(C#N)cn2)n[nH]1 [Example 3-9, 5-((5-(2-(((1S,3R)-3-aminocycloheptyl)oxy)-6-methoxyphenyl)-1H-pyrazol-3-yl)amino)pyrazine-2-carbonitrile] | 10 to 100
10 | N#Cc1cnc(Nc2cc(-c3c(F)cccc3OC3CC4(CC(N)C4)C3)[nH]n2)cn1 (centres unmarked) [Example 3-41, 5-((5-(2-((6-aminospiro[3.3]heptan-2-yl)oxy)-6-fluorophenyl)-1H-pyrazol-3-yl)amino)pyrazine-2-carbonitrile] | 100 to 500
11 | N#Cc1cnc(Nc2cc(-c3c(OC4CCC4)cccc3O[C@@H]3CC[C@H](N)C3)[nH]n2)cn1 [Example 1-36, 5-((5-(2-(((1R,3S)-3-aminocyclopentyl)oxy)-6-cyclobutoxyphenyl)-1H-pyrazol-3-yl)amino)pyrazine-2-carbonitrile] | 100 to 500
12 | N#Cc1cnc(Nc2cc(-c3c(F)cccc3O[C@H]3CCCC[C@@H](N)C3)[nH]n2)cn1 [Example 3-36, 5-((5-(2-(((1S,3R)-3-aminocycloheptyl)oxy)-6-fluorophenyl)-1H-pyrazol-3-yl)amino)pyrazine-2-carbonitrile] | ≤ 10
13 | CC(C)Oc1cccc(O[C@@H]2CC[C@H](N)C2)c1-c1cc(Nc2cnc(C#N)cn2)n[nH]1 [Example 1-24, 5-((5-(2-(((1R,3S)-3-aminocyclopentyl)oxy)-6-isopropoxyphenyl)-1H-pyrazol-3-yl)amino)pyrazine-2-carbonitrile] | > 1000
14 | N#Cc1cnc(Nc2cc(-c3nc(C(F)F)ccc3O[C@@H]3CC[C@H](N)C3)[nH]n2)cn1 [Example 3-54, 5-((5-(3-(((1R,3S)-3-aminocyclopentyl)oxy)-6-(difluoromethyl)pyridin-2-yl)-1H-pyrazol-3-yl)amino)pyrazine-2-carbonitrile] | ≤ 10
15 | Cc1ccc(O[C@H]2CC[C@@H](N)C2)c(-c2cc(Nc3cnc(C#N)cn3)n[nH]2)n1 [Example 3-43, 5-((5-(3-(((1S,3R)-3-aminocyclopentyl)oxy)-6-methylpyridin-2-yl)-1H-pyrazol-3-yl)amino)pyrazine-2-carbonitrile] | 100 to 500
16 | Cc1cc(-c2cc(Nc3cnc(C#N)cn3)n[nH]2)c(O[C@@H]2CC[C@H](N)C2)cc1F [Example 3-17, 5-((5-(2-(((1R,3S)-3-aminocyclopentyl)oxy)-4-fluoro-5-methylphenyl)-1H-pyrazol-3-yl)amino)pyrazine-2-carbonitrile] | 10 to 100
17 | Cc1cc(Cl)c(O[C@@H]2CC[C@H](N)C2)c(-c2cc(Nc3cnc(C#N)cn3)n[nH]2)n1 [Example 3-53, 5-((5-(3-(((1R,3S)-3-aminocyclopentyl)oxy)-4-chloro-6-methylpyridin-2-yl)-1H-pyrazol-3-yl)amino)pyrazine-2-carbonitrile] | > 1000
18 | Cc1nc(-c2cc(Nc3cnc(C#N)cn3)n[nH]2)c(O[C@@H]2CC[C@H](N)C2)cc1Cl [Example 3-52, 5-((5-(3-(((1R,3S)-3-aminocyclopentyl)oxy)-5-chloro-6-methylpyridin-2-yl)-1H-pyrazol-3-yl)amino)pyrazine-2-carbonitrile] | 100 to 500
19 | N#Cc1cnc(Nc2cc(-c3c(F)cccc3O[C@H]3CC[C@H]3N)[nH]n2)cn1 [Example 3-34, 5-((5-(2-((1S,2R)-2-aminocyclobutoxy)-6-fluorophenyl)-1H-pyrazol-3-yl)amino)pyrazine-2-carbonitrile] | > 1000
20 | N#Cc1cnc(Nc2cc(-c3c(F)cccc3O[C@@H]3CC[C@@H]3N)[nH]n2)cn1 [Example 3-32, 5-((5-(2-((1R,2S)-2-aminocyclobutoxy)-6-fluorophenyl)-1H-pyrazol-3-yl)amino)pyrazine-2-carbonitrile] | 10 to 100
21 | COc1cccc(O[C@@H]2CC[C@@H]2N)c1-c1cc(Nc2cnc(C#N)cn2)n[nH]1 [Example 3-4, 5-((5-(2-((1R,2S)-2-aminocyclobutoxy)-6-methoxyphenyl)-1H-pyrazol-3-yl)amino)pyrazine-2-carbonitrile] | 10 to 100
22 | COc1cccc(OCC2CC2N)c1-c1cc(Nc2cnc(C#N)cn2)n[nH]1 (centres unmarked) [Example 3-55, 5-((5-(2-((2-aminocyclopropyl)methoxy)-6-methoxyphenyl)-1H-pyrazol-3-yl)amino)pyrazine-2-carbonitrile] | ≤ 10
23 | N#Cc1cnc(Nc2cc(-c3c(OC4CCC4)cccc3O[C@H]3C[C@H](N)C3)[nH]n2)cn1 [Example 1-35, 5-((5-(2-((1r,3r)-3-aminocyclobutoxy)-6-cyclobutoxyphenyl)-1H-pyrazol-3-yl)amino)pyrazine-2-carbonitrile] | 100 to 500
